Assays:
Experiment in all cases: relative viability (nuclei count vs DMSO), 5 days (fraction); higher = more cells survive
Shikonin + Crizotinib = compound: CC(C)=CC[C@@H](O)C1=CC(=O)c2c(O)ccc(O)c2C1=O [Shikonin] + C[C@@H](Oc1cc(-c2cnn(C3CCNCC3)c2)cnc1N)c1c(Cl)ccc(F)c1Cl [Crizotinib] (partner 1 µM)
Summary of the method: (§1)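 Relative viability is defined as nuclei in treated wells over nuclei in vehicle wells. Duplicate plates were run and medians reported. Lung cancer cell lines in 1536-well plates were dosed by pin tool one day after seeding, with one drug or with a fixed anchor-drug dose plus five library-drug doses (not always all listed) in √10 steps, and nuclei were counted after 5 days.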

[1] = compound: CC(C)N(CCCNC(=O)Nc1ccc(C(C)(C)C)cc1)C[C@H]1O[C@@H](n2ccc3c(N)ncnc32)[C@H](O)[C@@H]1O + O=C(CCCCCCC(=O)Nc1ccccc1)NO [Vorinostat] (partner 1 µM)
Summary of the method: as §1

[2] = compound: CC(C)N(CCCNC(=O)Nc1ccc(C(C)(C)C)cc1)C[C@H]1O[C@@H](n2ccc3c(N)ncnc32)[C@H](O)[C@@H]1O + Cc1cc(Nc2cc(N3CCN(C)CC3)nc(Sc3ccc(NC(=O)C4CC4)cc3)n2)n[nH]1 [Tozasertib] (partner 0.1 µM)
Summary of the method: as §1

Shikonin + Decitabine = compound: CC(C)=CC[C@@H](O)C1=CC(=O)c2c(O)ccc(O)c2C1=O [Shikonin] + Nc1ncn([C@H]2C[C@H](O)[C@@H](CO)O2)c(=O)n1 [Decitabine] (partner 2 µM)
Summary of the method: as §1

Cell Line | relative viability (Shikonin + Crizotinib; first compound 0.01 µM) | relative viability (Shikonin + Crizotinib; first compound 0.1 µM) | relative viability (Shikonin + Crizotinib; first compound 0.3162 µM) | relative viability (Shikonin + Crizotinib; first compound 1 µM) | relative viability ([1]; first compound 0.08 µM) | relative viability ([1]; first compound 0.253 µM) | relative viability ([1]; first compound 0.8 µM) | relative viability ([1]; first compound 2.53 µM) | relative viability ([1]; first compound 8 µM) | relative viability ([2]; first compound 0.08 µM) | relative viability ([2]; first compound 0.253 µM) | relative viability ([2]; first compound 0.8 µM) | relative viability ([2]; first compound 2.53 µM) | relative viability ([2]; first compound 8 µM) | relative viability (Shikonin + Decitabine; first compound 0.01 µM) | relative viability (Shikonin + Decitabine; first compound 0.1 µM) | relative viability (Shikonin + Decitabine; first compound 0.3162 µM) | relative viability (Shikonin + Decitabine; first compound 1 µM)
BEN | 0.952 | 0.974 | 0.975 | 0.998 | 0.597 | 0.539 | 0.576 | 0.606 | 0.572 | 0.49 | 0.642 | 0.485 | 0.532 | 0.452 | 0.658 | 0.787 | 0.707 | 0.767
NCI-H1666 | 1.12 | 0.971 | 1.12 | 0.744 | 1.1 | 1 | 1.02 | 1.01 | 0.934 | 0.512 | 0.563 | 0.632 | 0.563 | 0.695 | 0.668 | 0.779 | 0.82 | 0.734
LC-2-ad | 0.404 | 0.45 | 0.423 | 0.364 | 0.666 | 0.784 | 0.55 | 0.722 | 0.671 | 0.475 | 0.432 | 0.442 | 0.485 | 0.41 | 0.75 | 0.849 | 0.874 | 0.89
ChaGo-K-1 | 1.07 | 1.19 | 1.11 | 1.21 | 0.785 | 0.827 | 0.756 | 0.715 | 0.766 | 0.242 | 0.245 | 0.222 | 0.209 | 0.23 | 0.521 | 0.529 | 0.513 | 0.567
Calu-6 | 1.02 | 0.854 | 0.912 | 0.75 |  |  |  |  |  |  |  |  |  |  |  |  |  | 
NCI-H1648 |  |  |  |  | 0.466 | 0.4 | 0.407 | 0.481 | 0.64 | 0.445 | 0.425 | 0.534 | 0.387 | 0.495 | 0.481 |  | 0.526 | 0.532
EBC-1 | 0.165 | 0.224 | 0.216 | 0.201 |  |  |  |  |  |  |  |  |  |  |  |  |  | 
NCI-H1299 | 0.958 | 1.09 | 0.965 | 0.922 |  |  |  |  |  |  |  |  |  |  |  |  |  | 
NCI-H2342 |  |  |  |  | 0.708 | 0.744 | 0.669 | 0.778 | 0.775 | 0.57 | 0.559 | 0.415 | 0.472 | 0.56 | 0.723 | 0.72 | 0.74 | 0.748
IA-LM | 1.06 |  | 1.11 | 0.667 | 0.88 | 0.761 | 0.909 | 0.968 | 0.96 |  |  |  |  |  |  |  |  | 
NCI-H1793 |  |  |  |  | 0.617 |  | 0.761 | 0.773 | 0.574 | 0.345 |  | 0.356 | 0.33 | 0.386 | 0.513 | 0.565 | 0.451 | 0.456
NCI-H2228 | 0.448 | 0.532 | 0.414 | 0.421 | 0.593 | 0.703 | 0.543 | 0.556 | 0.702 | 0.261 | 0.314 | 0.264 | 0.277 | 0.23 |  |  |  | 
CAL-12T | 0.941 | 0.659 | 0.627 | 0.589 | 0.788 | 0.76 | 0.965 | 0.644 | 0.578 | 0.326 | 0.315 | 0.309 | 0.293 | 0.29 |  |  |  | 
